One block for each substance: values may come before it. Where no end group is shown, it is not given here.
Key:
CCR5-1like = assay: BRET CAMYEL Gαi signaling via chimeric receptor M1-CCR5-1like; type: cell-based, human; details: n = 3
Description: To finally determine if the lack of acidic amino acids in the CCR5 N-terminus can explain the dependency of this receptor on O-glycosylation for effective ligand interaction, we constructed a CCR5 receptor chimera, where the most acidic N-terminal region of CCR1 was inserted into the CCR5 N-terminus, creating the chimeric receptor CCR5-1like (Figure 7).
Figure 7 Receptor N-termini representing CCR1, CCR5, and the chimeric CCR5-1like. The CCR1 N-terminus contains a lot of acidic amino acids (outlined in red) in the form of aspartic acid (D) and glutamic acid (E), whereas CCR5 only contains a few. The chimeric receptor CCR5-1like that contains part of the CCR1 receptor N-terminus (ETTTDYDE) resembles CCR1 with regard to acidic amino acid content and spacing, but they are not the same.
(§1) BRET measurements of Gαi signaling and β-arrestin recruitment: Cells were seeded in 6-well plates (500,000 cells/well) and transiently transfected the following day. For BRET measurements of Gαi signaling, cells were transfected with vectors encoding the human chemokine receptors as indicated (160 ng/well) and the CAMYEL sensor (cAMP sensor, YFP-Epac-RLuc) (840 ng/well) using Lipofectamine (6 µL/well). Briefly, DNA was dissolved in 125 µL OPTI-MEM and Lipofectamine was dissolved in 125 µL OPTI-MEM. The DNA and Lipofectamine solutions were combined into a transfection mixture. The transfection mixture was added dropwise to cells incubated in OPTI-MEM (1 mL/well). Transfections were terminated after 5 h by adding 1 mL of fresh culture medium on top of the OPTI-MEM. The following day the cells were loosened from the plates in PBS with 5 mM glucose and subsequently aliquoted in white 96-well iso plates (~25,000 cells/well). When using C21TP variants and defense peptides (hBD2 and histatin), these were added to a final concentration of 10 μM/well, while an equal amount of PBS was added to control cells. The bioluminescence substrate coelenterazine was added to a final conc. of 5 µM. After 10 min, varying ligand concentrations were added. For BRET measurements of Gαi signaling, forskolin was added 5 min after the addition of the ligand, to a final conc. of 5 µM. The plates were kept in the dark at all times. A Perkin Elmer Envision machine was used for measuring the emission signals at 530 and 480 nm. The BRET signal is determined as the ratio eYFP (530 nm)/Rluc (480 nm).
(§2) BRET principle with CAMYEL: For quantification of signaling initiated immediately downstream of receptor activation, we used the cAMP binding CAMYEL sensor to perform bioluminescence resonance energy transfer (BRET) based assays. In this assay we measure changes in intracellular cAMP levels in response to receptor activation. Activation of chemokine receptors lead to a decrease in cAMP through inhibition of adenylate cyclase (AC). In the current setup we initially add forskolin that stimulates AC directly to induce an increase in intracellular cAMP, and we then measure the ability of a ligand (chemokine) to counteract the forskolin-induced increase in cAMP. The cAMP sensor (CAMYEL cAMP sensor, YFP-Epac-RLuc) carries the donor Renilla luciferase (Rluc) and the acceptor YFP. Coelenterazine is a substrate for Rluc that will emit light at around 475 nm upon enzymatic cleavage catalyzed by Rluc. When Rluc and YFP are in close proximity, the energy from the emitted light from coelenterazine can be transferred to YFP, resulting in an excitation of YFP, leading to a BRET signal around 525 nm. […]

CCR5 = target: T1, CCR5 (Homo sapiens, UniProt P51681); assay: BRET CAMYEL cAMP sensor assay of ligand-induced Gαi signaling via CCR5; type: cell-based; details: n = 3
T1 construct: expressed in transfected cells; host or cells: CHO-K1, CHO-pgsB618 (GAG-minus), HEK293 WT / DeltaSia / sC
Protocol: For quantification of signaling initiated immediate downstream of receptor activation, we used the cAMP binding CAMYEL sensor to perform bioluminescence resonance energy transfer (BRET)-based assays. Shortly, in this assay increased receptor activation leads to an increase in BRET ratio. For detailed information see the Materials and Methods section.
In signaling assays testing the boosting ability of basic peptides, transfected cells were aliquoted into 96-well plates in the presence of 10 µM peptide or PBS vehicle. After R-Luc substrate addition, chemokines were added to reach final concentrations ranging from 0–100 nM (0, 0.1, 1, 10, and 100 nM) and forskolin was applied before reading emission at 475 and 525 nm.
as §1
as §2, with “nm. EPAC is a cAMP binding protein that changes conformation upon cAMP binding. During low cAMP concentrations, Rluc and YFP are near each other, and a strong BRET signal at 525 nm is obtained. When cAMP levels increase, cAMP will bind to EPAC, creating a conformational change, separating Rluc and YFP, reducing the BRET ratio, and increasing the emission from Rluc at 475 nm. Thus, by measuring the ratio between the cAMP-bound (475 nm) and the cAMP-free (525 nm) state of CAMYEL we obtain a measure of receptor activation.” for “nm.”

[1] = HEK293 WT, DeltaSia and sC cells, 10 µM peptide
[2] = CHO-K1 cells, 10 µM peptide, chemokine 0-100 nM
[3] = M1-tagged CCR5, HEK293 WT, DeltaSia and sC cells, 10 µM peptide

T1 sequence (P51681 whole entry): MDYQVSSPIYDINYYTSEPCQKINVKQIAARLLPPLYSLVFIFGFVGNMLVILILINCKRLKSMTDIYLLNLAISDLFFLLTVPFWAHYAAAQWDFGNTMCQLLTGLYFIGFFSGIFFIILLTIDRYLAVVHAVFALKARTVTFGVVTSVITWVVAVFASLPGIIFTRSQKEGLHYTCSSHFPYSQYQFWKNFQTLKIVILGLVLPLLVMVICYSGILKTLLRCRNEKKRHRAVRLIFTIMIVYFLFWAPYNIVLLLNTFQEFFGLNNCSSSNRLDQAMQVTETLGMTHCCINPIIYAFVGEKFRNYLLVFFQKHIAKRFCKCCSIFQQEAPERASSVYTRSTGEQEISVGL

LogEC50 of CCL5-induced Gαi signaling via CCR5 (CCR5; CHO GAG-plus (WT CHO-K1) cells, CCL5 alone without peptide): −7.522 ± 0.639 | Gαi signaling via CCR5 in DeltaSia cells compared to WT cells (CCR5; HEK293 DeltaSia (ST3GAL1/2 KO)): significantly impaired | Gαi signaling via CCR5 in DeltaSia and sC cells (CCR5; HEK293 DeltaSia and sC, CCL5 oligomerization variants experiment): very low | Gαi signaling via CCR5 in sC cells compared to WT cells (CCR5; HEK293 sC (C1GALT1 KO)): almost abolished | Gαi signaling via M1-CCR5 in DeltaSia and sC cells compared to WT cells (CCR5; M1-tagged CCR5, HEK293 DeltaSia and sC): drastically reduced
Substance: CCL5: human chemokine from Peprotech, overall basic
Gαi signaling via M1-CCR5-1like in DeltaSia and sC cells compared to WT cells (CCR5-1like; HEK293 DeltaSia and sC): persists in DeltaSia and sC to almost the same high level as observed in WT cells

boosting of CCL3 signaling via M1-CCR5-1like (CCR5-1like; [1]): absent | boosting of CCL8 signaling via M1-CCR5-1like (CCR5-1like; [1]): absent | boosting of CCL5 signaling via CCR5 in GAG-plus (WT) and GAG-minus cells (CCR5; CHO GAG-plus and CHO GAG-minus (CHO-pgsB618) cells, 10 µM peptide): boosted | boosting of CCL5-induced Gαi signaling via CCR5 (CCR5; [2]): boosted | boosting of CCL8-induced Gαi signaling via CCR5 (CCR5; [2]): boosted | effect on CCL3-induced Gαi signaling via CCR5 (CCR5; [2]): not affected | boosting of signaling by CCL5, E26A and E66A via CCR5 (CCR5; HEK293 DeltaSia and sC cells, 10 µM peptide): lost | boosting of CCL3 signaling via CCR5 (CCR5; [1]): absent | boosting of CCL5 signaling via CCR5 (CCR5; [1]): observed in all three cell lines | boosting of CCL8 signaling via CCR5 (CCR5; [1]): absent | boosting of E66A signaling via CCR5 (CCR5; HEK293 sC cells, 10 µM peptide): significantly boosted | boosting of CCL3-induced signaling via M1-CCR5 (CCR5; [3]): not boosted | boosting of CCL5-induced signaling via M1-CCR5 (CCR5; [3]): boosted | boosting of CCL8-induced signaling via M1-CCR5 (CCR5; [3]): not boosted
Substance: RKDRGASKTGKKGKGSKGCKRTERSQTPKGP [C21TP^81-111]
boosting of signaling by CCL5, E26A and E66A via CCR5 (CCR5; HEK293 WT cells, 10 µM peptide): boosting occurs with all three versions of CCL5

— article PMC11477141, “Chemokine Receptor N-Terminus Charge Dictates Reliance on Post-Translational Modifications for Effective Ligand Capture and Following Boosting by Defense Peptides” (International Journal of Molecular Sciences, 2024)
